# According to US9303069B2, “Peptides for treating cancer” (University of Mississippi Medical Center, priority 2014, dated 2016):
# Ends that are not written are not given here.
# What was measured:
# [1] = tested on: MDA-MB-231 and MDA-MB-468 cells; assay: Invasion assay, matrigel coated Boyden chambers, TNBC cells; type: cell-based, human; conditions: peptide added every 3rd day
# Source text: To study invasion in vitro, matrigel coated Boyden chambers were layered with MDA-MB-231 or MDA-MB-468 cells expressing shcontrol of shIRIS expressing cells, also parental cells were layered and grown in the presence of scrambled or IRIS peptide (added every 3rd day). To migrate to the lower side of the chamber or the bottom well, cells must first digest the matrigel. Four days later, a significant number of control treated cells invaded the matrigel and migrated to the lower side of the chambers (FIG. 95, 1st column and FIG. 96) and the bottom well (FIG. 97 and FIG. 98, 1st column) in both cell lines. […] Quantitatively, BRCA1-IRIS silencing or inactivation reduced the invasive/migratory ability of these TNBC cells by ˜100 fold (FIG. 96 and FIG. 97).
# Cell Invasion assay. Growth reduced BD Matrigel™ invasion chamber (24 well plate, 8.0 μm, BD BioCoat™) was used to study the invasion ability of control shRNA and BRCA1-IRIS shRNA expressing MDAMB231 cells. Cells (5×10^3) in complete medium (500 μl) were seeded on the upper compartment, and the lower compartment was filled with 750 μl of complete growth medium. […] Cells invaded into the lower side of the membrane as well as those migrate to the bottom well were stained with Crystal Violet, visualized under microscope, photographed and counted. […]
# SKOV3 cells = assay: Hanging drops (anchorage independent growth), SKOV3; type: cell-based, human; conditions: IRIS peptide 5 μM versus scrambled peptide
# Description: Hanging drops: In this technique, the anchorage independent growth ability of cells was measured.
# Hanging Drop Method. Single-cell suspensions were made from monolayer cultures in growth medium. Cell density used was 250 cells per drop (20 μl) of medium dispensed onto a 6 cm dish (Corning Life Sciences, Union City, Calif.). The dish was then inverted, the drops were held in place by surface tension, and cells accumulated at the free liquid-air interface. The dishes were placed on a tray with water and incubated under standard conditions. Hanging cell-drops formed was analyzed using microscope. All experiments were done in triplicate.
# BRCA1-IRIS and survivin = assay: IHC of MDA-MB-468 tumors for BRCA1-IRIS and survivin; type: in vivo, mice; conditions: MDA-MB-468 tumors after treatment
# Source text: To study that on the molecular level, sections from these tumors were stained with H&E or for BRCA1-IRIS or survivin using immunohistochemistry. […] Accordingly, it is proposed that inactivating BRCA1-IRIS in TNBC patients might sensitize to lower paclitaxel concentrations to avoid the adverse side effects and also to prevent the recurrence of these tumors at a later point.
# Immunohistochemistry (IHC). Breast tissue microarrays comprised of normal, DCIS, invasive and metastatic were purchased from US Biomax, Inc. Paraffin embedded tissue sections were de-waxed in xylene and rehydrated in alcohol. Antigen-retrieval: for FOXO3a and survivin was by heating the slides in citrate buffer (10 μM, pH 6.0) using microwave (Power level 4) for 10 minutes, for BRCA1-IRIS by incubating slides in pepsin (10 μM) for 20 min at 37° C. Endogenous peroxidase activity was suppressed by treating the slides with 3% H2O2 for 10 min. Slides were then incubated for 1 hour at room temperature with antibodies to human FOXO3a or survivin (Cell Signaling Technology, USA 1:400), or overnight at 4° C. with monoclonal anti-human BRCA1-IRIS (1:75). Vectastain Elite ABC Kit was used to develop the staining using horseradish peroxidase labeled secondary antibodies (1 hour at room temperature).
# [2] = tested on: HME/IRIS, MDA-MB-231 and MDA-MB-468 cells; assay: Acini formation in matrigel-coated wells, breast cell lines; type: cell-based, human; conditions: day 10; peptide added every third day
# Source text: Next, it was considered whether BRCA1-IRIS depletion or inactivation could impact the aggressive behavior in breast cancer cell lines. BRCA1-IRIS silenced HME, HME/IRIS, MDA-MB-231 and MDA-MB-468 cells were layered on matrigel-coated wells. Moreover, parental cell lines were layered on the matrigel and grown in the presence of scrambled or IRIS peptide (added every third day). […] On day 10, HME acini became slightly bigger but remained round (FIG. 89, 1st column and FIG. 90). Acini formed by HME/IRIS, MDA-MB-231 and MDA-MB-468 were large/non-round on day 10 (FIG. 89, 1st column and FIGS. 90 and 91). BRCA1-IRIS depletion (FIG. 89, 2nd column and FIG. 91) or inactivation (FIG. 89, 3rd column and Suppl. FIG. 91) reverted this phenotype back to near normal “small/round” acini. Quantitatively, BRCA1-IRIS overexpression led to >3-fold increase in HME cells aggressiveness, and its depletion or inactivation reduced that phenotype in tumor cells by >3 fold (FIG. 90 and FIG. 91).
# MDA-MB-231 cells = conditions: 48 h
# Description: (§1) All cell lines were exposed to increasing concentrations of paclitaxel and BRCA1-IRIS expression, and cells' viability was then measured.
# (§2) Stable clones were then exposed to 0, 10 or 20 μM of EGFR (Erlotinib), ErbB2 (CP-724714), PI3′K/AKT (LY294002), p38 (SB203580), ERK (PD98059) or JNK (SP600125) inhibitors for 24 hours.
# (§3) First, to assess the effect of this IRIS peptide, equal numbers of HME, HME/IRIS, MDA-MB-231, MDA-MB-468 and BT549 cells were exposed to increasing concentrations of scrambled or IRIS peptide for 48 hours.
# (§4) Cell viability under different experimental conditions was determined using the MTS assay. Briefly, cells (2.5×10^4 cells per well) were seeded in 96-well plates and incubated overnight at 37° C. in 10% humidified CO2 atmosphere. The next day they were incubated with varying concentration of peptide, or inhibitors for 24 hours at 37° C. Cell viability was determined using cell Titer 96® Aqueous (Promega, Madison, Wis., USA) following manufacturer's instructions. Cell viability (%) was expressed as a ratio of treated cells to control cells×100. Growth inhibition was also determined by manually counting cells in five different microscopic fields. Change in cell numbers (fold) was expressed as a ratio of the means of these recording of treated cells compared to control cells×100. Each experiment was done in triplicate, repeated three separate times.
# BT549 cells = conditions: 48 h
# Description: as §1
# (§5) Cell viability measurement. Cell viability under different experimental conditions was determined using the MTS assay. Briefly, cells (2.5×10^4 cells per well) were seeded in 96-well plates and incubated overnight at 37° C. in 10% humidified CO2 atmosphere. The next day they were incubated with varying concentration of peptide, or inhibitors for 24 hours at 37° C. Cell viability was determined using cell Titer 96® Aqueous (Promega, Madison, Wis., USA) following manufacturer's instructions. Cell viability (%) was expressed as a ratio of treated cells to control cells×100. […] Each experiment was done in triplicate, repeated three separate times.
# HME/IRIS cells = conditions: 48 h
# Description: as §1, §5
# MDA-MB-468 cells = conditions: 48 h
# Description: as §1, §2, §3, §4
# [3] = tested on: BRCA1-IRIS, TrkB, ErbB2, AKT, p-AKT, p-FOXO, Cyclin D1, Bcl-2 and survivin; assay: Expression of growth and survival proteins in HOSE and HOSE/IRIS cells (Western); type: cell-based, human; conditions: IRIS peptide 5 μM, cisplatin 10 μM, combination 2.5 μM IRIS peptide + 5 μM cisplatin
# Source text: HOSE cells overexpressing IRIS show a higher degree of resistance to cisplatin than HOSE cells (compare blue to black line in FIG. 30).
# HME cells = conditions: 48 h
# Description: as §1, §5
sequence,measurement,setting,value
RRIRPRPPRLPRPRPRPLPFPRPGIGTRFLCLPQSIYRSELNVYAFGEHILQISKYS [IRIS peptide],reduction of invasive/migratory ability,[1],~100 fold
same,ability to form hanging drops,SKOV3 cells,complete loss of ability
same,BRCA1-IRIS and survivin expression in tumors (IHC),BRCA1-IRIS and survivin,almost completely absent
same,reduction of aggressive (large/non-round) acini phenotype in tumor cells,[2],> 3 fold
same,IC50,MDA-MB-231 cells,~5 µM
same,IC50,BT549 cells,~5 µM
same,IC50,HME/IRIS cells,~5 µM
same,IC50,MDA-MB-468 cells,~5 µM
same,"expression of BRCA1-IRIS, TrkB, ErbB2, AKT, p-AKT, p-FOXO, Cyclin D1, Bcl-2 and survivin",[3],significant decrease
same,IC50,HME cells,~0.5 µM
